Data as given in ChEMBL document CHEMBL1201862, “PubChem BioAssay data set” (2004).
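Protocol summary: plate cells (96-well), add compound at 5 concentrations, incubate 48 h, interpolate endpoints linearly. The concentration for 50% growth inhibition is given as GI50.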 Calls of active or inactive are those of the source. Rule as the data show it: active = GI50 up to about 1.1 µM and inactive = higher.

Columns and labels:
Test in all cases: inhibition of tumour cell growth, NCI panel, 48 h
[1] = system: SK-MEL-5
[2] = system: T47D
[3] = system: SR
[4] = system: PC-3
[5] = system: MDA-N
[6] = system: SNB-75
[7] = system: OVCAR-4
[8] = system: HOP-62
[9] = system: HT-29
[10] = system: OVCAR-3
[11] = system: HL-60
[12] = system: UO-31
[13] = system: ACHN
[14] = system: NCI-H226
[15] = system: SW-620
[16] = system: A498
[17] = system: TK-10
[18] = system: NCI-H460
[19] = system: RXF 393
[20] = system: Hs-578T

Row | SMILES | GI50 [1] | GI50 [2] | GI50 [3] | GI50 [4] | GI50 [5] | GI50 [6] | GI50 [7] | GI50 [8] | GI50 [9] | GI50 [10] | GI50 [11] | GI50 [12] | GI50 [13] | GI50 [14] | GI50 [15] | GI50 [16] | GI50 [17] | GI50 [18] | GI50 [19] | GI50 [20]
1 | O=C(/N=N/c1ccccc1Cl)NNc1ccccc1Cl | 85.3 µM (inactive) | 30.5 µM (inactive) | 27.5 µM (inactive) | 30 µM (inactive) | 36.5 µM (inactive) | > 100 µM (inactive) | 16.2 µM (inactive) | 9.48 µM (inactive) | 93.8 µM (inactive) | 35 µM (inactive) | 19.2 µM (inactive) | 21.8 µM (inactive) | 28.1 µM (inactive) | > 100 µM (inactive) | 40.7 µM (inactive) | 29 µM (inactive) | 50.9 µM (inactive) | 65 µM (inactive) | – | –
2 | O=[N+]([O-])c1ccc(CSc2nncc3[nH]cnc23)cc1 | > 100 µM (inactive) | > 100 µM (inactive) | > 100 µM (inactive) | > 100 µM (inactive) | > 100 µM (inactive) | 80.2 µM (inactive) | > 100 µM (inactive) | > 100 µM (inactive) | > 100 µM (inactive) | > 100 µM (inactive) | > 100 µM (inactive) | 33.4 µM (inactive) | 77.4 µM (inactive) | > 100 µM (inactive) | > 100 µM (inactive) | > 100 µM (inactive) | > 100 µM (inactive) | – | – | –
3 | Cc1cc(C#N)c(Nc2ccccc2[N+](=O)[O-])s1 | – | 36.6 µM (inactive) | 40.2 µM (inactive) | 23.8 µM (inactive) | 14.9 µM (inactive) | 15.4 µM (inactive) | 89.3 µM (inactive) | 24.3 µM (inactive) | – | 21 µM (inactive) | – | 39.7 µM (inactive) | 58.7 µM (inactive) | 51.1 µM (inactive) | 25.5 µM (inactive) | 37.7 µM (inactive) | – | 36.6 µM (inactive) | 3.96 µM (inactive) | –
4 | CN(C)/C=[N+]1/[C@@H](Cc2ccccc2)C(=O)O[B-]1(F)c1ccccc1 (stereo partly specified) | > 100 µM (inactive) | > 100 µM (inactive) | > 100 µM (inactive) | > 100 µM (inactive) | > 100 µM (inactive) | > 100 µM (inactive) | > 100 µM (inactive) | > 100 µM (inactive) | > 100 µM (inactive) | > 100 µM (inactive) | > 100 µM (inactive) | > 100 µM (inactive) | > 100 µM (inactive) | > 100 µM (inactive) | > 100 µM (inactive) | > 100 µM (inactive) | > 100 µM (inactive) | > 100 µM (inactive) | – | –
5 | C=C(C)C1Cc2c(cc(O)c3c(=O)c4c(oc23)C(O)Oc2cc(OC)c(OC)cc2-4)O1 (stereo unspecified) | – | > 10 µM (inactive) | > 10 µM (inactive) | > 10 µM (inactive) | > 10 µM (inactive) | – | > 10 µM (inactive) | > 10 µM (inactive) | > 10 µM (inactive) | > 10 µM (inactive) | > 10 µM (inactive) | > 10 µM (inactive) | > 10 µM (inactive) | 6.97 µM (inactive) | > 10 µM (inactive) | > 10 µM (inactive) | > 10 µM (inactive) | > 10 µM (inactive) | > 10 µM (inactive) | –
6 | Nc1ccc(S(=O)(=O)c2ccc(/N=[N+](\[O-])c3ccc(S(=O)(=O)c4ccc(N)cc4)cc3)cc2)cc1 | 44 µM (inactive) | > 48 µM (inactive) | > 61.4 µM (inactive) | > 55.3 µM (inactive) | – | 8.02 µM (inactive) | 19.4 µM (inactive) | 20.4 µM (inactive) | > 100 µM (inactive) | 31 µM (inactive) | > 100 µM (inactive) | > 100 µM (inactive) | > 60.5 µM (inactive) | 14.6 µM (inactive) | > 100 µM (inactive) | 30.8 µM (inactive) | > 44.1 µM (inactive) | 66.5 µM (inactive) | 7.66 µM (inactive) | 8.39 µM (inactive)
7 | O=C(/C=C/c1ccc(-c2ccccc2[N+](=O)[O-])o1)NCc1ccc(C(=O)NCCc2ccccc2)cc1 | > 100 µM (inactive) | > 100 µM (inactive) | 5.62 µM (inactive) | > 100 µM (inactive) | – | > 100 µM (inactive) | > 100 µM (inactive) | > 100 µM (inactive) | > 100 µM (inactive) | > 100 µM (inactive) | – | > 100 µM (inactive) | > 100 µM (inactive) | > 100 µM (inactive) | > 100 µM (inactive) | 29.3 µM (inactive) | > 100 µM (inactive) | > 100 µM (inactive) | > 100 µM (inactive) | > 100 µM (inactive)
8 | O=C(CC(=O)N1N=C(N(c2ccccc2)c2ccccc2)CC1c1ccccc1)Nc1ccc(Cl)cc1 (stereo unspecified) | > 100 µM (inactive) | > 100 µM (inactive) | > 100 µM (inactive) | > 100 µM (inactive) | – | 94 µM (inactive) | > 100 µM (inactive) | > 100 µM (inactive) | > 100 µM (inactive) | > 100 µM (inactive) | > 100 µM (inactive) | > 100 µM (inactive) | > 100 µM (inactive) | > 100 µM (inactive) | > 100 µM (inactive) | – | > 100 µM (inactive) | > 100 µM (inactive) | > 100 µM (inactive) | > 100 µM (inactive)
9 | O=CN1CCN(C(=O)c2ccc(Cl)c(Cl)c2)C1=S | – | 15.3 µM (inactive) | – | 14.7 µM (inactive) | – | 17.5 µM (inactive) | 18.2 µM (inactive) | 16.1 µM (inactive) | 19.4 µM (inactive) | 15 µM (inactive) | 24.6 µM (inactive) | – | 17.3 µM (inactive) | 20.7 µM (inactive) | 19.4 µM (inactive) | 15.8 µM (inactive) | 16.5 µM (inactive) | 19.2 µM (inactive) | 17.5 µM (inactive) | 39.5 µM (inactive)
10 | OCSc1nn(CO)c(=S)s1 | 31.8 µM (inactive) | 23.9 µM (inactive) | 0.0643 µM (active) | 24.4 µM (inactive) | – | 24.4 µM (inactive) | 18.5 µM (inactive) | 21.8 µM (inactive) | 28.1 µM (inactive) | 24 µM (inactive) | 18 µM (inactive) | – | 25.1 µM (inactive) | 31.6 µM (inactive) | 28.1 µM (inactive) | – | 73.5 µM (inactive) | 23.8 µM (inactive) | 16.9 µM (inactive) | 14.3 µM (inactive)
11 | CCCCCCc1ccc(CCCCCCCC(=O)O)o1 | > 100 µM (inactive) | > 100 µM (inactive) | 44 µM (inactive) | > 100 µM (inactive) | > 100 µM (inactive) | 55.7 µM (inactive) | > 100 µM (inactive) | > 100 µM (inactive) | 46.2 µM (inactive) | 34.2 µM (inactive) | – | > 100 µM (inactive) | 62.4 µM (inactive) | 94 µM (inactive) | > 100 µM (inactive) | – | – | > 100 µM (inactive) | – | –
12 | Cc1cccc(NC(=S)Nc2ccc([N+](=O)[O-])cc2)n1 | > 100 µM (inactive) | > 100 µM (inactive) | > 100 µM (inactive) | > 100 µM (inactive) | – | > 100 µM (inactive) | > 100 µM (inactive) | > 100 µM (inactive) | > 100 µM (inactive) | – | > 100 µM (inactive) | > 100 µM (inactive) | > 100 µM (inactive) | > 100 µM (inactive) | > 100 µM (inactive) | > 100 µM (inactive) | > 100 µM (inactive) | > 100 µM (inactive) | > 100 µM (inactive) | > 100 µM (inactive)
